Assay results reported in patent US9732075B2, “Benzimidazole-proline derivatives” (IDORSIA PHARMACEUTICALS LTD, priority 2012, dated 2017).

Tests used:
human orexin-1 receptor = human orexin-1 receptor (Homo sapiens (Human), UniProt O43613); assay: In vitro assay: intracellular calcium measurements (FLIPR), antagonistic activity; format: cell-based; conditions: CHO cells expressing human orexin-1 receptor, orexin-A agonist, geometric mean, read-out: IC50 Ox1
Method in brief: (§1)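 IC50s are geometric means, possibly reference-normalized, from FLIPR calcium peaks in CHO cells bearing human orexin-1 or orexin-2 receptor. Fluo-4 AM/probenecid-loaded cells received antagonist for 120 min before challenge with orexin-A (final 3 nM, ~EC70), with responses compared against vehicle controls.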

human orexin-2 receptor = human orexin-2 receptor (Homo sapiens (Human), UniProt O43614); assay: as above; format: cell-based; conditions: CHO cells expressing human orexin-2 receptor, orexin-A agonist, geometric mean, read-out: IC50 Ox2
Method in brief: as §1

Chain of human orexin-1 receptor (O43613 whole entry): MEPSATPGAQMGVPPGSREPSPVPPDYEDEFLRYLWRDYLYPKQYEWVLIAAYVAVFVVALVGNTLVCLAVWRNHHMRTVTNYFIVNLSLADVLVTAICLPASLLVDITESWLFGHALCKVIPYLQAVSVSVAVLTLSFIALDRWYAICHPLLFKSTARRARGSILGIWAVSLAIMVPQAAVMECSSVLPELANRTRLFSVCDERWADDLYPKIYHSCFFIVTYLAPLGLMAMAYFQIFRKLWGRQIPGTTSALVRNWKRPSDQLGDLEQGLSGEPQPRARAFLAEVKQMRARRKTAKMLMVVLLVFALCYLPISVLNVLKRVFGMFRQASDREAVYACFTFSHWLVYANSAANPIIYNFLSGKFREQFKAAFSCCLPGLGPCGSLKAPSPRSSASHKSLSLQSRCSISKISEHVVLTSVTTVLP
Chain of human orexin-2 receptor (O43614 whole entry): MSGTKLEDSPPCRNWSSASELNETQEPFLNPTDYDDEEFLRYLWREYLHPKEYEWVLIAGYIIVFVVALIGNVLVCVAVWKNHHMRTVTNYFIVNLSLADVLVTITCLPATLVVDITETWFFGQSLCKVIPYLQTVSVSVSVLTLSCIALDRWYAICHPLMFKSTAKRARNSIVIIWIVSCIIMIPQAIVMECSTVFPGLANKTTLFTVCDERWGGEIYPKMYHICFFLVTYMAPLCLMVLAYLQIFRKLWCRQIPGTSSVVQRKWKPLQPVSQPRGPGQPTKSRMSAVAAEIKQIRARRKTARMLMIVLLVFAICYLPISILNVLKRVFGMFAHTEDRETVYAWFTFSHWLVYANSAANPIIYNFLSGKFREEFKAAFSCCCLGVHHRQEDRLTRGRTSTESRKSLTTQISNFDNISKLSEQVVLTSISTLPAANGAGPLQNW

Structure (SMILES) | IC50 (human orexin-1 receptor) | IC50 (human orexin-2 receptor)
C=C1CC(c2nc3cc(C(C)(C)C)ccc3[nH]2)N(C(=O)c2cc(C)sc2-c2ccc(C)c(C)c2)C1 (stereo not shown) [Ex. 6.81] | 19 nM | 23 nM
C=C1CC(c2nc3cc(Cl)c(C(F)(F)F)cc3[nH]2)N(C(=O)c2cc(C)sc2-c2ccc(C)c(C)c2)C1 (stereo not shown) [Ex. 6.82] | 36 nM | 208 nM
C=C1CC(c2nc3cccc(Cl)c3[nH]2)N(C(=O)c2cc(C)sc2-c2ccc(C)c(C)c2)C1 (stereo not shown) [Ex. 6.84] | 8 nM | 14 nM
C=C1CC(c2nc3cc4ccccc4cc3[nH]2)N(C(=O)c2cc(C)sc2-c2ccc(C)c(C)c2)C1 (stereo not shown) [Ex. 6.85] | 108 nM | 42 nM
C=C1CC(c2nc3cc(SC)ccc3[nH]2)N(C(=O)c2nc(C3CC3)sc2-c2cccc(C)c2)C1 (stereo not shown) [Ex. 6.88] | 20 nM | 15 nM
C=C1CC(c2nc3c(C)c(Cl)ccc3[nH]2)N(C(=O)c2nc(C3CC3)sc2-c2cccc(C)c2)C1 (stereo not shown) [Ex. 6.89] | 2 nM | 2 nM
C=C1CC(c2nc3cc(C)c(C)cc3[nH]2)N(C(=O)c2nc(C3CC3)sc2-c2cccc(C)c2)C1 (stereo not shown) [Ex. 6.90] | 6 nM | 1 nM
C=C1CC(c2nc3c(C)cc(C)cc3[nH]2)N(C(=O)c2nc(C3CC3)sc2-c2cccc(C)c2)C1 (stereo not shown) [Ex. 6.91] | 2 nM | 1 nM
C=C1CC(c2nc3c(Br)cccc3[nH]2)N(C(=O)c2nc(C3CC3)sc2-c2cccc(C)c2)C1 (stereo not shown) [Ex. 6.93] | 0.9 nM | 3 nM
C=C1CC(c2nc3c(C)cccc3[nH]2)N(C(=O)c2nc(C3CC3)sc2-c2cccc(C)c2)C1 (stereo not shown) [Ex. 6.94] | 2 nM | 1 nM
C=C1CC(c2nc3cc(C(C)(C)C)ccc3[nH]2)N(C(=O)c2nc(C3CC3)sc2-c2cccc(C)c2)C1 (stereo not shown) [Ex. 6.96] | 234 nM | 68 nM
C=C1CC(c2nc3c(OC)ccc(OC)c3[nH]2)N(C(=O)c2nc(C3CC3)sc2-c2cccc(C)c2)C1 (stereo not shown) [Ex. 6.98] | 4 nM | 3 nM
C=C1C[C@@H](c2nc3cccc(C)c3[nH]2)N(C(=O)c2nc(C)sc2-c2ccc(Br)cc2)C1 [Ex. 6.100] | 55 nM | 4 nM
C=C1C[C@@H](c2nc3cccc(C)c3[nH]2)N(C(=O)c2nc(C)sc2-c2cccc(C)c2)C1 [Ex. 6.101] | 10 nM | 0.9 nM
C=C1C[C@@H](c2nc3cccc(C)c3[nH]2)N(C(=O)c2cc(Cl)ccc2-n2nccn2)C1 [Ex. 6.102] | 364 nM | 32 nM
C=C1C[C@@H](c2nc3cccc(C)c3[nH]2)N(C(=O)c2nc(C)sc2-c2ccc(OC)nc2)C1 [Ex. 6.103] | 184 nM | 6 nM
C=C1C[C@@H](c2nc3cccc(C)c3[nH]2)N(C(=O)c2nc(C)sc2-c2cccc(Br)c2)C1 [Ex. 6.104] | 13 nM | 0.8 nM
C=C1C[C@@H](c2nc3cccc(C)c3[nH]2)N(C(=O)c2nc(C)ccc2-n2cccn2)C1 [Ex. 6.105] | 1060 nM | 77 nM
C=C1C[C@@H](c2nc3cccc(C)c3[nH]2)N(C(=O)c2nc(C)sc2-c2ccc(F)cc2)C1 [Ex. 6.106] | 99 nM | 5 nM
C=C1C[C@@H](c2nc3cccc(C)c3[nH]2)N(C(=O)c2nc(C)sc2-c2cc(C)cc(C)c2)C1 [Ex. 6.107] | 74 nM | 16 nM

Structure (SMILES) | IC50 (human orexin-1 receptor) | IC50 (human orexin-2 receptor)
C=C1C[C@@H](c2nc3cccc(C)c3[nH]2)N(C(=O)c2cc(C)c(C)cc2-n2nccn2)C1 [Ex. 6.108] | 414 nM | 7 nM
C=C1C[C@@H](c2nc3cccc(C)c3[nH]2)N(C(=O)c2nc(C)sc2-c2ccc(Cl)cc2)C1 [Ex. 6.109] | 112 nM | 7 nM
C=C1C[C@@H](c2nc3cccc(C)c3[nH]2)N(C(=O)c2nc(C)sc2-c2ccc(F)c(Br)c2)C1 [Ex. 6.110] | 15 nM | 1 nM
C=C1C[C@@H](c2nc3cccc(C)c3[nH]2)N(C(=O)c2cc(OC)ccc2-n2nccn2)C1 [Ex. 6.111] | 272 nM | 14 nM
C=C1C[C@@H](c2nc3cccc(C)c3[nH]2)N(C(=O)c2nc(C)sc2-c2cccc(C(F)(F)F)c2)C1 [Ex. 6.112] | 15 nM | 0.7 nM
C=C1C[C@@H](c2nc3cccc(C)c3[nH]2)N(C(=O)c2nc(C)sc2-c2ccc(Cl)c(Cl)c2)C1 [Ex. 6.113] | 5 nM | 1 nM
C=C1C[C@@H](c2nc3cccc(C)c3[nH]2)N(C(=O)c2nc(C)sc2-c2cccc(OC)c2)C1 [Ex. 6.114] | 16 nM | 0.7 nM
C=C1C[C@@H](c2nc3cccc(C)c3[nH]2)N(C(=O)c2nc(C)ccc2-n2nccn2)C1 [Ex. 6.115] | 333 nM | 9 nM
C=C1C[C@@H](c2nc3ccc(Cl)c(C)c3[nH]2)N(C(=O)c2nc(C)sc2-c2ccc(Br)cc2)C1 [Ex. 6.116] | 14 nM | 3 nM
C=C1C[C@@H](c2nc3ccc(Cl)c(C)c3[nH]2)N(C(=O)c2nc(C)sc2-c2ccc(OC)nc2)C1 [Ex. 6.117] | 19 nM | 3 nM
C=C1C[C@@H](c2nc3ccc(Cl)c(C)c3[nH]2)N(C(=O)c2nc(C)sc2-c2ccc(F)cc2)C1 [Ex. 6.118] | 21 nM | 4 nM
C=C1C[C@@H](c2nc3ccc(Cl)c(C)c3[nH]2)N(C(=O)c2nc(C)sc2-c2ccc(Cl)cc2)C1 [Ex. 6.119] | 14 nM | 3 nM
C=C1C[C@@H](c2nc3ccc(Cl)c(C)c3[nH]2)N(C(=O)c2nc(C)sc2-c2cccc(C(F)(F)F)c2)C1 [Ex. 6.120] | 8 nM | 0.6 nM
C=C1C[C@@H](c2nc3ccc(Cl)c(C)c3[nH]2)N(C(=O)c2nc(C)sc2-c2cccc(OC)c2)C1 [Ex. 6.121] | 1 nM | 0.5 nM
C=C1C[C@@H](c2nc3ccc(Cl)c(C)c3[nH]2)N(C(=O)c2nc(C)sc2-c2cccc(C)c2)C1 [Ex. 6.122] | 0.9 nM | 0.6 nM
C=C1C[C@@H](c2nc3ccc(Cl)c(C)c3[nH]2)N(C(=O)c2nc(C)sc2-c2cccc(Br)c2)C1 [Ex. 6.123] | 2 nM | 0.7 nM
C=C1C[C@@H](c2nc3ccc(Cl)c(C)c3[nH]2)N(C(=O)c2nc(C)sc2-c2cc(C)cc(C)c2)C1 [Ex. 6.124] | 15 nM | 4 nM
C=C1C[C@@H](c2nc3ccc(Cl)c(C)c3[nH]2)N(C(=O)c2nc(C)sc2-c2ccc(F)c(Br)c2)C1 [Ex. 6.125] | 2 nM | 0.8 nM
C=C1C[C@@H](c2nc3ccc(Cl)c(C)c3[nH]2)N(C(=O)c2nc(C)sc2-c2ccc(Cl)c(Cl)c2)C1 [Ex. 6.126] | 3 nM | 0.8 nM
C=C1C[C@@H](c2nc3ccc(Cl)c(C)c3[nH]2)N(C(=O)c2nc(C)ccc2-n2nccn2)C1 [Ex. 6.127] | 17 nM | 4 nM

Structure (SMILES) | IC50 (human orexin-1 receptor) | IC50 (human orexin-2 receptor)
C=C1C[C@@H](c2nc3ccc(Cl)c(C)c3[nH]2)N(C(=O)c2cc(Cl)ccc2-n2nccn2)C1 [Ex. 6.128] | 20 nM | 1 nM
C=C1C[C@@H](c2nc3ccc(Cl)c(C)c3[nH]2)N(C(=O)c2cc(C(F)(F)F)ccc2-n2nccn2)C1 [Ex. 6.129] | 215 nM | 39 nM
C=C1C[C@@H](c2nc3ccc(Cl)c(C)c3[nH]2)N(C(=O)c2cc(C)c(C)cc2-n2nccn2)C1 [Ex. 6.130] | 11 nM | 0.6 nM
C=C1C[C@@H](c2nc3ccc(Cl)c(C)c3[nH]2)N(C(=O)c2cc(OC)ccc2-n2nccn2)C1 [Ex. 6.131] | 9 nM | 0.5 nM
C=C1C[C@@H](c2nc3ccc(Cl)c(C)c3[nH]2)N(C(=O)c2c(-n3nccn3)ccc(C)c2F)C1 [Ex. 6.132] | 13 nM | 4 nM
C=C1C[C@@H](c2nc3ccc(Cl)c(C)c3[nH]2)N(C(=O)c2c(-n3nccn3)ccc(OC)c2F)C1 [Ex. 6.133] | 3 nM | 2 nM
C=C1C[C@@H](c2nc3ccc(Cl)c(C)c3[nH]2)N(C(=O)c2cc(C)ccc2-n2cccn2)C1 [Ex. 6.134] | 75 nM | 10 nM
C=C1C[C@@H](c2nc3ccc(Cl)c(C)c3[nH]2)N(C(=O)c2nc(C)ccc2-n2cccn2)C1 [Ex. 6.135] | 83 nM | 5 nM
C=C1C[C@@H](c2nc3ccc(OC)cc3[nH]2)N(C(=O)c2cc(Cl)ccc2-n2nccn2)C1 [Ex. 6.136] | 765 nM | 4 nM
C=C1C[C@@H](c2nc3ccc(OC)cc3[nH]2)N(C(=O)c2cc(C)ccc2-n2cccn2)C1 [Ex. 6.137] | 4950 nM | 23 nM
C=C1C[C@@H](c2nc3ccc(OC)cc3[nH]2)N(C(=O)c2nc(C)ccc2-n2cccn2)C1 [Ex. 6.138] | > 6970 nM | 34 nM
C=C1C[C@@H](c2nc3ccc(OC)cc3[nH]2)N(C(=O)c2cc(C)c(C)cc2-n2nccn2)C1 [Ex. 6.139] | 137 nM | 0.6 nM
C=C1C[C@@H](c2nc3ccc(OC)cc3[nH]2)N(C(=O)c2cc(OC)ccc2-n2nccn2)C1 [Ex. 6.140] | 667 nM | 10 nM
C=C1C[C@@H](c2nc3ccc(OC)cc3[nH]2)N(C(=O)c2c(-n3nccn3)ccc(C)c2F)C1 [Ex. 6.141] | 883 nM | 9 nM
C=C1C[C@@H](c2nc3cc(C(F)(F)F)c(Cl)cc3[nH]2)N(C(=O)c2nc(C)sc2-c2ccc(C)c(C)c2)C1 [Ex. 6.142] | 17 nM | 22 nM
C=C1CN(C(=O)c2nc(C)sc2-c2cccc(C)c2)C(C)(c2nc3cc(OC)ccc3[nH]2)C1 (stereo not shown) [Ex. 6.143] | 13 nM | 32 nM
C=C1CN(C(=O)c2nc(N(C)C)sc2-c2ccc(C)c(C)c2)C(C)(c2nc3cc(OC)ccc3[nH]2)C1 (stereo not shown) [Ex. 6.144] | 15 nM | 56 nM
C=C1CN(C(=O)c2nc(C)sc2-c2ccc(OC)cc2)C(C)(c2nc3cc(OC)ccc3[nH]2)C1 (stereo not shown) [Ex. 6.147] | 13 nM | 34 nM
C=C1CN(C(=O)c2nc(C)sc2-c2ccc(C)cc2)C(C)(c2nc3cc(OC)ccc3[nH]2)C1 (stereo not shown) [Ex. 6.148] | 19 nM | 40 nM
